The values below come from article PMC11985751, “Synthesis, bioactivity, and molecular docking studies: novel arylpiperazine derivatives as potential new-resistant AR antagonists” (Frontiers in Chemistry, 2025).

Assay [1] has as its system LNCaP. Nature of the assay: In vitro cytotoxicity, CCK-8 assay. Type of assay: cell-based, human. To be noted: LNCaP cells, CCK-8, mean ± SD of three trials. The protocol:
(§1) PC-3 and WPMY-1 cells were cultured in Dulbecco’s modiffcation Eagle’s medium (DMEM, Invitrogen, Carlsbad, CA, United States) supplemented with 10% fetal bovine serum (FBS, Hyclone, Logan, UT, United States), 100 U/mL penicillin and 0.1 mg/mL streptomycin (Invitrogen). DU145 cells were cultured in RPMI1640 media supplemented with 10% fetal bovine serum (FBS, Hyclone), 100 U/mL penicillin and 0.1 mg/mL streptomycin (Invitrogen). LNCaP cells were cultured in F12 media supplemented with 10% fetal bovine serum (FBS, Hyclone), 100 U/mL penicillin and 0.1 mg/mL streptomycin (Invitrogen). The cells were incubated at 37°C in a humidified atmosphere with 5% CO2([Chen et al., 2025]; [Jiang et al., 2024]).
The proliferative capacity of cells was evaluated through the implementation of a Cell Counting Kit-8 (CCK-8) assay, supplied by Dojindo (Japan), to quantify cellular growth. Post-transfection, cells were dispensed into a 96-well microplate at a density of 3 × 10^3 cells per well and incubated for intervals of 0, 24, 48, 72, 96, and 120 h. Following this, 10 μL of the CCK-8 solution was introduced into each well and the plates were returned to the incubator for an additional 2-h period at 37°C under 5% CO2 conditions. Absorbance readings at 450 nm were subsequently taken using an ELISA reader manufactured by Bio Tek (United States) ([Chen et al., 2022]; [Zhou et al., 2024]).
(§2) The compound concentrations were set at 30, 15, 7.5, 3.75, 1.88, and 0.94 μmol/L. The absorbance (A) was measured at 450 nm using a microplate reader. […] All experiments were repeated three times under identical conditions, and the mean value was taken as the final result.
(§3) The cytotoxic activity of derivatives 5–24 against three human prostate cancer cell lines (PC-3, LNCaP, and DU145) and one type of human normal prostate epithelial cells was evaluated using the CCK-8 method.
(Tetrazolium dyes change colour on reduction, which living cells bring about.)

In assay [2] the target is T1, AR-LBD (GST) (Rattus norvegicus, UniProt P15207).
T1 sequence (P15207 651-882 limits assumed): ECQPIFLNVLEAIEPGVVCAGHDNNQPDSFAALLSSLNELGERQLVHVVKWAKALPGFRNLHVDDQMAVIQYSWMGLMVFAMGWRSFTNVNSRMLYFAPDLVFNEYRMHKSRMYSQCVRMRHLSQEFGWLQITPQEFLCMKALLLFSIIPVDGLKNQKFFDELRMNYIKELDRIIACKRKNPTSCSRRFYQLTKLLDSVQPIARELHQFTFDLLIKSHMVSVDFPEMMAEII
The experiment in a line: Fluorescence polarization, PolarScreen AR Competitor Assay, Green. On the technique in general: Fluorescence polarisation rises when a labelled molecule tumbles more slowly, as on binding a larger partner.
Description: Brieffy, the assay entails titration of the test compound against a preformed complex of Fluormone™AL Green and the AR-LBD (GST). […] Data analysis for the ligand binding assays was performed using Prism software (GraphPad Software, Inc.).

For assay [3], the system named is PC-3. The experiment in a line: In vitro cytotoxicity, CCK-8 assay. Particulars: CCK-8, mean ± SD of three trials. It counts as cell-based, human. The procedure: as §1, with “2024]). […]” for “2024]).”
as §2, §3

The subject of assay [4] is WPMY-1. Nature of the assay: In vitro cytotoxicity, CCK-8 assay (normal prostatic epithelial cells). It counts as cell-based. To be noted: Homo sapiens; WPMY-1 normal prostatic epithelial cells, CCK-8, mean ± SD of three trials. The protocol: as §1, with “2024]). […]” for “2024]).”
as §2, §3

For assay [5], the target named is T2, AR (Homo sapiens, UniProt P10275).
T2 sequence (P10275 1-920): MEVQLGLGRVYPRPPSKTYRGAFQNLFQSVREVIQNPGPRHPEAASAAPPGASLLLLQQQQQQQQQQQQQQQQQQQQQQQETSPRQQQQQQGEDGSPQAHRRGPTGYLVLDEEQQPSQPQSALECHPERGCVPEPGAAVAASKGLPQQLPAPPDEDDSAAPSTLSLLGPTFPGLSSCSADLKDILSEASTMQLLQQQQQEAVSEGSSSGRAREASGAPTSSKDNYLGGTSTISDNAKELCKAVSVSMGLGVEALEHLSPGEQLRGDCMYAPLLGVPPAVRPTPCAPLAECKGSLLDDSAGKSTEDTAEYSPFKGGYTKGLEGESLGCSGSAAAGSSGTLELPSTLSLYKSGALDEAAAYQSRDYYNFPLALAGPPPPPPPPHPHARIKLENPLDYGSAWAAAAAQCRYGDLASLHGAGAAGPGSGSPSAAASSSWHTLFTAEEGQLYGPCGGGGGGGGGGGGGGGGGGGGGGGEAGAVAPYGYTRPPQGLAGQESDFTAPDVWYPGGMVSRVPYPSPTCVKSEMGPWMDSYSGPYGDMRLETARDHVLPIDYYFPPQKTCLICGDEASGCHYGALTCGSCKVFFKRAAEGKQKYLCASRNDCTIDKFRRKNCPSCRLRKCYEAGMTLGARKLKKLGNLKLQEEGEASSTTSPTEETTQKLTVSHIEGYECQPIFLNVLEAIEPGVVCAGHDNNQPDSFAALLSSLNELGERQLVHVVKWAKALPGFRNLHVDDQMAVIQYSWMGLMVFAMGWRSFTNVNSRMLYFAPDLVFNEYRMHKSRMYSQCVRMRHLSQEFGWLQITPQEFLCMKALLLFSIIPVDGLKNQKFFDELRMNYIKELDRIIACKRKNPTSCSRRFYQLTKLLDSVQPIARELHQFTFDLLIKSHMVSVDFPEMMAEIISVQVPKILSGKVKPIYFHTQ
Nature of the assay: AR reporter gene (luciferase) assay, co-treatment with 1 nM R1881. Particulars: 10 μM compound, inhibition rate as ratio to R1881 control, read-out: AR antagonistic activity% (10 μM). It counts as cell-based. The procedure: RLUs were measured using a luminometer (GloMaxTM 96-Microplate Luminometer, Promega) and are reported as the mean ± SEM of three individual experiments. For agonists, fold of induction = LUinduced/RLUuninduced. For antagonists, % of control = 100 × RLU (agonist + antagonist)/RLU (agonist alone). All RLUs were normalized against ffreffy RLUs/Renilla RLUs. Data are expressed as EC50/IC50 values in μM, and the IC50 of […] (μM) was calculated by plotting the data using nonlinear regression analysis in Graph-Pad Prism 5 software.

Assay [6] deals with DU145. The experiment in a line: In vitro cytotoxicity, CCK-8 assay. To be noted: Homo sapiens, DU-145; DU145 cells, CCK-8, mean ± SD of three trials. It counts as cell-based. The procedure:
as §1, with “2024]). […]” for “2024]).”
as §2, §3

In general, IC50 refers to the concentration that gives 50% inhibition. A higher IC50 goes with weaker potency in that assay. As for `Cc1cc(C)cc(OCCc2ccc(CN3CCN(C(c4ccccc4)c4ccccc4)CC3)cc2)c1` [Compound 7, 1-benzhydryl-4-(4-(2-(3,5-dimethylphenoxy)ethyl)benzyl)piperazine], the half-maximal inhibitory concentration (IC50) in assay [1] (Homo sapiens, LNCaP) is over 50 µM; in assay [2], 2.15 ± 0.13 µM; in assay [3] (Homo sapiens, PC-3, PC-3 cells), under 5 µM; in assay [3] (PC-3 cells) it was 2.95 ± 0.04 µM; in assay [4], over 50 µM; in assay [6], 24.76 ± 0.21 µM. Further, in assay [5], the activity at 10 µM is 50.1 ± 1.1%.

Consider `Clc1cc(Cl)cc(OCCc2ccc(CN3CCN(C(c4ccccc4)c4ccccc4)CC3)cc2)c1` [Compound 11, 1-benzhydryl-4-(4-(2-(3,5-dichlorophenoxy)ethyl)benzyl)piperazine], for which the half-inhibitory concentration (IC50) in assay [1] (Homo sapiens, LNCaP) was over 50 µM; in assay [2] it was 2.01 ± 0.15 µM; in assay [4], over 50 µM; in assay [6] it was 17.43 ± 0.04 µM. Moreover, in assay [5], the activity at 10 µM turned out to be 51.2 ± 1.3%.

As for `Clc1ccc(OCCc2ccc(CN3CCN(C(c4ccccc4)c4ccccc4)CC3)cc2)cc1` [Compound 21, 1-benzhydryl-4-(4-(2-(4-chlorophenoxy)ethyl)benzyl)piperazine], the IC50 is 16.09 ± 0.12 µM in assay [1] (Homo sapiens, LNCaP); 2.74 ± 0.16 µM in assay [2]; under 5 µM in assay [3] (Homo sapiens, PC-3, PC-3 cells); 2.83 ± 0.21 µM in assay [3] (PC-3 cells); 28.65 ± 0.13 µM in assay [4]; 13.7 ± 0.14 µM in assay [6]. In addition, the activity at 10 µM in assay [5] was determined as 49.4 ± 0.8%.

For `c1ccc(C(c2ccccc2)N2CCN(Cc3ccc(CCOc4cccc5ccccc45)cc3)CC2)cc1` [Compound 22, 1-benzhydryl-4-(4-(2-(naphthalen-1-yloxy)ethyl)benzyl)piperazine], the 50% inhibitory concentration (IC50) was 6.78 ± 0.14 µM in assay [1] (Homo sapiens, LNCaP); 3.02 ± 0.24 µM in assay [2]; 10.1 ± 0.17 µM in assay [3] (Homo sapiens, PC-3, PC-3 cells); 33.16 ± 0.15 µM in assay [4]; 15.76 ± 0.09 µM in assay [6]. The activity at 10 µM in assay [5] stood at 40.3 ± 1.2%.

As for `Brc1ccc(OCCc2ccc(CN3CCN(C(c4ccccc4)c4ccccc4)CC3)cc2)cc1` [Compound 23, 1-benzhydryl-4-(4-(2-(4-bromophenoxy)ethyl)benzyl)piperazine], the half-maximal inhibitory concentration (IC50) in assay [1] (Homo sapiens, LNCaP) is under 5 µM; in assay [1], 3.86 ± 0.13 µM; in assay [2] it was 1.72 ± 0.12 µM; in assay [4], over 50 µM; in assay [6], 1.42 ± 0.11 µM. The activity at 10 µM in assay [5] is over 60%.

With `FC(F)(F)c1ccc(OCCc2ccc(CN3CCN(C(c4ccccc4)c4ccccc4)CC3)cc2)cc1` [Compound 24, 1-benzhydryl-4-(4-(2-(4-(trifluoromethyl)phenoxy)ethyl)benzyl)piperazine], the IC50 was 14.6 ± 0.18 µM in assay [1] (Homo sapiens, LNCaP); 2.87 ± 0.22 µM in assay [2]; under 5 µM in assay [3] (Homo sapiens, PC-3, PC-3 cells); 3.94 ± 0.14 µM in assay [3] (PC-3 cells); over 50 µM in assay [4]; 5.76 ± 0.14 µM in assay [6]. In addition, in assay [5], the activity at 10 µM worked out at 47.3 ± 0.6%.
